Results reported in patent US20260182569A1, “SMART BIOSTIMULANT DELIVERY FOR PLANT GROWTH AND DEVELOPMENT” (King Abdullah University of Science and Technology, priority 2022, published 2026).

Key:
[1] = Thermal stability in amino acid media, PBS and HEPES, 45° C. for 24 hours (UV-vis); type: physicochemical; details: amino acid and buffer (PBS, HEPES) solutions
Source text: Organic matter is combined with more than 90% of the nitrogen sources present in the soil, with 20%-40% of this ratio in amino form. The amino acid (AA) composition of soil organic matter depends on several factors, for instance, pH, plant interaction with other microorganisms, environmental factors (e.g., temperature and CO2 levels), and chemical and nutrient composition. Thus, considering the complexity of using soil as substrates for plants as well as the mechanisms that these undergo during their growth stages, it is important to develop more resistant materials that remain stable under certain conditions. To test the stability of ZIF-8@MiZax-3, it was dissolved in a series of AA media and incubated it at 45° C. for 24 hours. Additionally, PBS and HEPES solutions were utilized to assess the thermal stability in biological and physiological conditions.
A set of samples were prepared as follows: Aspartic acid (5 mM), Glutamine (5 mM), Histidine (5 mM), PBS (1×), Asparagine (5 mM), Glutamic acid (5 mM), Alanine (5 mM), HEPES (10 mM), Mixture of amino acids (5 mM) all in 5 mL of PBS and 1 drop of ethanol. Subsequently, the samples were vortexed for 10 seconds and incubated at 45° C. for 24 hours. […]
A decrease in intensity around 283 nm wavelength and remarkable shifts in the absorbance maxima of MiZax-3 were readily observed after the incubation period. […]

3T3 cells = assay: Cytotoxicity analysis, live-dead viability and CCK-8 assays; type: cell-based; details: viability after 24 hours
Source text: FIG. 10A illustrates a cytotoxicity analysis of precursor molecules, including Zn(NO3)2, 2-MIm, and MiZax-3, according to some embodiments. FIG. 10B illustrates a cytotoxicity analysis of ZIF-8 and ZIF-8@MiZax-3 complexes, according to some embodiments. Assessing the safety of this synthetic platform is critical. Accordingly, it is important to check if any of the materials or degraded building blocks are transferred from the rhizosphere to the actual fruit. For cytotoxicity analysis, live-dead viability and cell counting kit-8 (CCK-8) assays were performed according to the manufacturer's protocol. Briefly, 3T3 cells (1×10^4 cells per well) were seeded onto a 96-well plate. After 24 hours, cells were incubated with different concentrations (0.1, 0.5, 1, 5, 10, and 50 μg/mL) of ZIF-8 and ZIF-8 loaded with MiZax-3. In addition, to evaluate the cytotoxicity of the particles after degradation at low pH, 3T3 cells were incubated with Zn(NO3)2 and 2-MIm at concentrations of (0.01, 0.05, 0.1, 0.5, 1, 5, 10, and 50 μg/mL) and with MiZax-3 at (0.01, 0.05, 0.1, 0.5, 1, 5, 10, and 50 ng/mL). The cell viability was measured after 24 hours.

pepper fruits = assay: LC-MS analysis of pepper fruits from field trial for MiZax-3; type: in vivo
[2] = tested on: Capsicum (C. annuum L. var. California Wonder); assay: Capsicum field trial, growth and yield; type: in vivo
Method: FIG. 10C illustrates a schematic representation of the final product utilized for soil treatment, according to some embodiments. The final products included ZIF-8, MiZax-3, and ZIF-8@MiZax-3. These products were added to the sand/soil for the field experiment. FIG. 10D illustrates pictures of a field experiment utilizing ZIF-8@MiZax-3, according to some embodiments. Capsicum (C. annuum L. var. California Wonder) seedlings used for the field trial were initially germinated in soil and grown until the 4-week-old stage in a greenhouse under a semi-controlled environment adjusted to 28° C. (day)/26° C. (night) temperature, under 12 hours-light photoperiod with 60% humidity for nursery. During the nursery period, seedlings were given Hoagland solution to boost their growth before transferring to the field. The uniformly selected seedlings were transferred to the field during the winter season. The field used for the capsicum trial for testing ZIF-8, MiZax-3, and ZIF-8@MiZax-3 was divided into plots and treatments were allocated by following randomized complete block design (RCBD) with three replications as previously described. Each plot size was around 2 m×1.2 m with a planting distance of 50 cm×60 cm (8 plants/plot). After a week of acclimation, the first soil treatments were completed by mixing ZIF-8 (˜33.3 mg/L soil), MiZax-3 (˜1.38 mg/L soil), and ZIF-8@MiZax-3 (˜33.3 mg/L soil) directly on top of each plant stem on the soil surface. The treatments were repeated twice with a month gap in between. Plants were watered with a drip irrigation system twice a day, with an average of half a liter of water per individual. Plant phenotyping data were collected until 13 weeks after transplanting (13WAT) stage to the field. FIG. 11B illustrates a graph of the number of buds per individual at 4WAT, according to some embodiments. […] Two consecutive harvests were completed to compare the total fresh fruit yield harvested per total number of plants (n=24) between treatments and mock. The ZIF-8, MiZax-3 and ZIF-8@MiZax-3 treatments enhanced the total yield by 26.37%, 31.76% and 35.11%, respectively. […] In addition, zinc fertilizers can alter the microbial communities in the rhizosphere, which promotes plant growth and eventually increases yield.

[3] = fresh fruit, total number of plants n=24

COc1ccc(Oc2cccc(/C=C/C(C)=O)c2)cc1 [MiZax-3, (E)-4-(3-(4-methoxyphenoxy)phenyl) but-3-en-2-one]
Shift of UV-vis absorption after thermal incubation [1]: significant wavelength shifts up to 332 nm | Concentration up to which high biocompatibility was exhibited (3T3 cells): up to 50 ng/ml | MiZax-3 in pepper fruits of treated plants (pepper fruits): no detectible MiZax-3 | Number of flower buds per individual ([2]; 4WAT): significantly higher number of flower buds compared to the mock and ZIF-8 treated seedlings | Plant height ([2]; 4WAT): significantly taller than mock and ZIF-8 treated plants | Average dry shoot biomass per individual plant ([2]; 13WAT, compared to mock, no statistically significant difference): upwards trend | Plant health (appearance) ([2]; 13WAT, versus mock): healthier than the mock plants | Average Total Fruit Number ([2]; capsicum field trial, soil treatment): 53.17 | Harvest-1 [2, 3]: 4464.8 g | Harvest-2 [2, 3]: 5423.8 g | Yield Enhancement ([2]; total yield versus mock): 31.76% | Total Yield ([2]; two harvests, total number of plants n=24): 9888.6 g
